From ChEMBL document CHEMBL1201862, “PubChem BioAssay data set” (2004)
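A five-concentration, 48-hour dose response in 96-well plates underlies each endpoint, interpolated linearly between surrounding concentrations. Abbreviation: GI50, concentration required for 50% inhibition of growth.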 The source made the active and inactive calls. Rule as the data show it: active = GI50 up to about 1.1 µM and inactive = higher.

Experiments:
Experiment in all cases: NCI tumour cell line growth inhibition, 48 h
[1] = system: DLD-1
[2] = system: UACC-62
[3] = system: K562
[4] = system: HOP-62
[5] = system: HL-60
[6] = system: 786-0
[7] = system: RPMI-8226
[8] = system: SK-MEL-2
[9] = system: UACC-257
[10] = system: M14
[11] = system: SK-MEL-5
[12] = system: MOLT-4
[13] = system: KM12
[14] = system: NCI-H23
[15] = system: HCT-116
[16] = system: A498
[17] = system: MDA-MB-435
[18] = system: BT-549
[19] = system: PC-3
[20] = system: MDA-N

Compound	GI50 [1]	GI50 [2]	GI50 [3]	GI50 [4]	GI50 [5]	GI50 [6]	GI50 [7]	GI50 [8]	GI50 [9]	GI50 [10]	GI50 [11]	GI50 [12]	GI50 [13]	GI50 [14]	GI50 [15]	GI50 [16]	GI50 [17]	GI50 [18]	GI50 [19]	GI50 [20]
COc1cc2c(cc1C1=NC(C)(C)CO1)OCO2	> 100 µM (inactive)	> 100 µM (inactive)	> 100 µM (inactive)	> 100 µM (inactive)	> 100 µM (inactive)	> 100 µM (inactive)	> 100 µM (inactive)	> 100 µM (inactive)	> 100 µM (inactive)	> 100 µM (inactive)	> 100 µM (inactive)	> 100 µM (inactive)	> 100 µM (inactive)	> 100 µM (inactive)	> 100 µM (inactive)	–	–	–	–	–
CC(c1ccc(Br)cc1)C(C(=O)O)C(=O)O (stereo not drawn)	> 100 µM (inactive)	> 100 µM (inactive)	> 100 µM (inactive)	> 100 µM (inactive)	> 100 µM (inactive)	> 100 µM (inactive)	> 100 µM (inactive)	> 100 µM (inactive)	> 100 µM (inactive)	> 100 µM (inactive)	> 100 µM (inactive)	> 100 µM (inactive)	> 100 µM (inactive)	> 100 µM (inactive)	> 100 µM (inactive)	–	–	–	–	–
Cc1ccc(S(=O)(=O)NC(=O)C2S(=O)(=O)OCCOS2(=O)=O)cc1	> 100 µM (inactive)	> 100 µM (inactive)	> 100 µM (inactive)	> 100 µM (inactive)	> 100 µM (inactive)	> 100 µM (inactive)	> 100 µM (inactive)	> 100 µM (inactive)	> 100 µM (inactive)	> 100 µM (inactive)	> 100 µM (inactive)	> 10 µM (inactive)	> 100 µM (inactive)	> 100 µM (inactive)	> 100 µM (inactive)	–	–	–	–	–
C#CCN(N=O)C(=O)NCCCC(NC(C)=O)C(=O)NCc1ccccc1 (stereo not drawn)	> 100 µM (inactive)	81.7 µM (inactive)	43.3 µM (inactive)	> 100 µM (inactive)	–	> 100 µM (inactive)	15.9 µM (inactive)	–	> 100 µM (inactive)	> 100 µM (inactive)	> 100 µM (inactive)	15.3 µM (inactive)	> 100 µM (inactive)	> 100 µM (inactive)	73.6 µM (inactive)	> 100 µM (inactive)	–	–	–	–
O=S(=O)(O)c1ccc(/N=N/c2nc(C(F)(F)F)c(C(F)(F)F)[nH]2)cc1	43.5 µM (inactive)	28.4 µM (inactive)	53.8 µM (inactive)	36.6 µM (inactive)	32.1 µM (inactive)	> 100 µM (inactive)	> 100 µM (inactive)	30.3 µM (inactive)	69.5 µM (inactive)	20.8 µM (inactive)	> 100 µM (inactive)	24.2 µM (inactive)	> 100 µM (inactive)	24.2 µM (inactive)	37.7 µM (inactive)	–	–	–	–	–
C/C=C1/CN2CCC34C5=CC(=O)C(c6cc7c(cc6OC)N(C)C6=C(C(=O)OC)CC8(CC)CCCN9CCC67C98)=CC5=NC23CCC1C4C(=O)OC (stereo not drawn)	–	16.6 µM (inactive)	3.48 µM (inactive)	16.8 µM (inactive)	1.93 µM (inactive)	12.1 µM (inactive)	4.04 µM (inactive)	16.5 µM (inactive)	14 µM (inactive)	12.3 µM (inactive)	15.2 µM (inactive)	2.45 µM (inactive)	16.4 µM (inactive)	14.8 µM (inactive)	10.9 µM (inactive)	16.6 µM (inactive)	13 µM (inactive)	16 µM (inactive)	13 µM (inactive)	14 µM (inactive)
S=C(N/N=C/c1ccccn1)N1CCCCC1	–	0.0497 µM (active)	< 0.01 µM (active)	< 0.01 µM (active)	< 0.01 µM (active)	< 0.0137 µM (active)	< 0.01 µM (active)	0.0695 µM (active)	< 0.01 µM (active)	< 0.01 µM (active)	< 0.0198 µM (active)	< 0.01 µM (active)	< 0.0262 µM (active)	< 0.01 µM (active)	< 0.01 µM (active)	< 0.0461 µM (active)	0.163 µM (active)	0.0249 µM (active)	< 0.01 µM (active)	0.271 µM (active)
CN1CCN(C(=O)CCNC(=O)Cc2ccc(C(=O)c3ccccc3)cc2)CC1	–	> 100 µM (inactive)	27.9 µM (inactive)	> 100 µM (inactive)	58.3 µM (inactive)	> 100 µM (inactive)	> 100 µM (inactive)	> 100 µM (inactive)	> 100 µM (inactive)	> 100 µM (inactive)	71.6 µM (inactive)	> 100 µM (inactive)	48.6 µM (inactive)	> 100 µM (inactive)	> 100 µM (inactive)	83.4 µM (inactive)	22.9 µM (inactive)	64.3 µM (inactive)	> 100 µM (inactive)	15.5 µM (inactive)
COC(=O)c1cnc(Cl)c([N+](=O)[O-])c1	–	16.8 µM (inactive)	2.44 µM (inactive)	19.1 µM (inactive)	2.42 µM (inactive)	3.57 µM (inactive)	2.52 µM (inactive)	16.1 µM (inactive)	7.41 µM (inactive)	14 µM (inactive)	14.1 µM (inactive)	2.42 µM (inactive)	17.4 µM (inactive)	17.3 µM (inactive)	2.77 µM (inactive)	21.4 µM (inactive)	6.22 µM (inactive)	17.9 µM (inactive)	10.7 µM (inactive)	7.6 µM (inactive)
Cn1c(CBr)nc2c1C(=O)c1nc(CBr)[nH]c(=O)c1C2=O	> 100 µM (inactive)	> 100 µM (inactive)	> 100 µM (inactive)	–	–	> 100 µM (inactive)	53 µM (inactive)	–	–	> 100 µM (inactive)	> 100 µM (inactive)	> 100 µM (inactive)	–	> 100 µM (inactive)	> 100 µM (inactive)	> 100 µM (inactive)	–	–	–	–
CN1/C(=C/C(=O)c2ccc(Cl)cc2)Nc2ccccc21	37.4 µM (inactive)	44.3 µM (inactive)	35.9 µM (inactive)	–	25.1 µM (inactive)	65.6 µM (inactive)	31.8 µM (inactive)	> 100 µM (inactive)	31.9 µM (inactive)	67.3 µM (inactive)	25.5 µM (inactive)	22.6 µM (inactive)	42.4 µM (inactive)	43.7 µM (inactive)	45.7 µM (inactive)	–	–	–	–	–
CCCNC(=S)N/N=C(\C)c1ccc(S(=O)(=O)N(C)c2ccccc2)cc1	–	> 100 µM (inactive)	> 100 µM (inactive)	6.34 µM (inactive)	> 100 µM (inactive)	19.3 µM (inactive)	> 31.6 µM (inactive)	40.8 µM (inactive)	> 100 µM (inactive)	> 29.1 µM (inactive)	> 100 µM (inactive)	> 100 µM (inactive)	> 100 µM (inactive)	> 60.8 µM (inactive)	> 100 µM (inactive)	55.3 µM (inactive)	> 100 µM (inactive)	> 100 µM (inactive)	> 100 µM (inactive)	> 100 µM (inactive)
C=C=C(CC(CC(=C)Br)(C(=O)OC)C(=O)OC)S(=O)(=O)c1ccccc1	–	1.61 µM (inactive)	1.48 µM (inactive)	5.21 µM (inactive)	0.494 µM (active)	1.05 µM (active)	1.85 µM (inactive)	2.5 µM (inactive)	2.03 µM (inactive)	1.96 µM (inactive)	3.11 µM (inactive)	1.91 µM (inactive)	2.29 µM (inactive)	2.05 µM (inactive)	0.92 µM (active)	5.6 µM (inactive)	1.74 µM (inactive)	1.4 µM (inactive)	1.73 µM (inactive)	2.44 µM (inactive)
N#C/C(=C1\SC(/N=N/c2ccc(Cl)cc2)C(=O)N1c1ccccc1)c1nc2ccccc2[nH]1 (stereo not drawn)	> 100 µM (inactive)	31.4 µM (inactive)	14.1 µM (inactive)	19.8 µM (inactive)	45.6 µM (inactive)	13.7 µM (inactive)	–	18.2 µM (inactive)	27.3 µM (inactive)	20.1 µM (inactive)	35 µM (inactive)	–	–	17.3 µM (inactive)	46 µM (inactive)	29.7 µM (inactive)	–	–	–	–
C/C(=N\Nc1nc2ccccc2n1C)c1cnccn1	–	0.366 µM (active)	< 0.0316 µM (active)	0.537 µM (active)	0.0178 µM (active)	0.0671 µM (active)	< 0.0297 µM (active)	0.839 µM (active)	0.0483 µM (active)	0.064 µM (active)	0.154 µM (active)	< 0.0261 µM (active)	0.824 µM (active)	0.105 µM (active)	0.0265 µM (active)	0.684 µM (active)	0.55 µM (active)	5.25 µM (inactive)	0.0426 µM (active)	0.753 µM (active)
CCCCc1ccc(Nc2nc(Cl)c3ncn(COCCOC(C)=O)c3n2)cc1	–	17.3 µM (inactive)	6.04 µM (inactive)	17.1 µM (inactive)	20.9 µM (inactive)	16 µM (inactive)	18.2 µM (inactive)	14.8 µM (inactive)	19.8 µM (inactive)	18 µM (inactive)	16.7 µM (inactive)	21.2 µM (inactive)	20.4 µM (inactive)	16.2 µM (inactive)	17.6 µM (inactive)	25.5 µM (inactive)	18.5 µM (inactive)	16.5 µM (inactive)	16.8 µM (inactive)	18.8 µM (inactive)
C/C(=N\O)c1ccc(Nc2c3ccccc3nc3occc23)cc1	–	0.228 µM (active)	0.174 µM (active)	0.436 µM (active)	0.154 µM (active)	0.51 µM (active)	0.207 µM (active)	0.196 µM (active)	7.26 µM (inactive)	0.236 µM (active)	0.222 µM (active)	0.169 µM (active)	0.231 µM (active)	1.36 µM (inactive)	0.185 µM (active)	1.11 µM (active)	0.0246 µM (active)	0.366 µM (active)	0.327 µM (active)	0.0847 µM (active)
